Molecular target: T1, GCS (Canis lupus familiaris, UniProt A0A8I3MXG6)
T1 sequence (A0A8I3MXG6 1-394): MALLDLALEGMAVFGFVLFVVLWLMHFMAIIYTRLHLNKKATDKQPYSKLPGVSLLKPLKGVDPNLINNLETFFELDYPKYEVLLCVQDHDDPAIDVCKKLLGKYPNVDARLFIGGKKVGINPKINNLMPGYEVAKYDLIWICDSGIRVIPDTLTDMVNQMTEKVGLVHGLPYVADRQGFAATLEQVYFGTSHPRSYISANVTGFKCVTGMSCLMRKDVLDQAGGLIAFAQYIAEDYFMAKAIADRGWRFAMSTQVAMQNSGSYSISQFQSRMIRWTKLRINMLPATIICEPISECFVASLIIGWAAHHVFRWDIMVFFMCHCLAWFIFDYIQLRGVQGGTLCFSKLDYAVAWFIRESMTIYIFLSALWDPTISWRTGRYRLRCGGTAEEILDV
Assay: Assay 1: GCS Enzymatic Assay (MDCK cell lysate, C6-NBD-Ceramide, LC/MS)
Assay type: biochemical, canine
Details: Table 1; MDCK cell lysate; read-out: IC50 (nM) generated from Assay 1
Outline: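 LC/MS/MS measurement of glucosylceramide and NBD-ceramide after a 1 h, 37 °C reaction with 100 μM UDP-glucose and 10 μM C6-NBD-ceramide gave IC50s or percent inhibition.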

| Compound | IC50 [nM] |
| --- | --- |
| O=C(N[C@H](CN1CCCC1)[C@H](O)c1ccc2c(c1)OCCO2)C(F)(F)CCc1ccc2ccccc2c1 [Compound 22, N-((1R,2R)-1-(2,3-dihydrobenzo[b][1,4]dioxin-6-yl)-1-hydroxy-3-(pyrrolidin-1-yl)propan-2-yl)-2,2-difluoro-4-(naphthalen-2-yl)butanamide] | < 50 |
| O=C(N[C@H](CN1CCCC1)[C@H](O)c1ccc2c(c1)OCCO2)C(F)(F)C1Cc2ccc(F)cc2C1 (stereo partly drawn) [Compound 21, N-((1R,2R)-1-(2,3-dihydrobenzo[b][1,4]dioxin-6-yl)-1-hydroxy-3-(pyrrolidin-1-yl)propan-2-yl)-2,2-difluoro-2-(5-fluoro-2,3-dihydro-1H-inden-2-yl)acetamide] | < 50 |
| COc1ccc([C@H](O)[C@@H](CN2CCCC2)NC(=O)C(F)(F)C2Cc3ccccc3C2)cc1F [Compound 5, 2-(2,3-dihydro-1H-inden-2-yl)-2,2-difluoro-N-((1S,2R)-1-(3-fluoro-4-methoxyphenyl)-1-hydroxy-3-(pyrrolidin-1-yl)propan-2-yl)acetamide] | < 50 |

Same assay, conditions: Table 1; values marked *; MDCK cell lysate

| Compound | % inhibition generated from Assay 1 |
| --- | --- |
| COc1ccc(C(O)[C@@H](CN2CCCC2)NC(=O)C(F)(F)c2cc3cc(Cl)ccc3s2)cc1F (stereo partly drawn) [Compound 4, 2-(5-chlorobenzo[b]thiophen-2-yl)-2,2-difluoro-N-((2R)-1-(3-fluoro-4-methoxyphenyl)-1-hydroxy-3-(pyrrolidin-1-yl)propan-2-yl)acetamide] | B* (the compound had a % inhibition of greater than or equal to about 3% but less than about 50%) |
| Cn1ncc2ccc([C@@H](O)[C@@H](CN3CCCC3)NC(=O)C(F)(F)c3cc4cc(Cl)ccc4o3)cc21 [Compound 54, 2-(5-chlorobenzofuran-2-yl)-2,2-difluoro-N-((1R,2R)-1-hydroxy-1-(1-methyl-1H-indazol-6-yl)-3-(pyrrolidin-1-yl)propan-2-yl)acetamide] | B* (the compound had a % inhibition of greater than or equal to about 3% but less than about 50%) |

Same assay, conditions: Table 2; data marked by *

| Compound | % inhibition generated from Assay 1 |
| --- | --- |
| O=C(N[C@H](CN1CCCC1)[C@H](O)c1ccc2c(c1)OCCO2)C(=O)c1[nH]cc2c1CCCC2 [Compound 77, N-((1R,2R)-1-(2,3-dihydrobenzo[b][1,4]dioxin-6-yl)-1-hydroxy-3-(pyrrolidin-1-yl)propan-2-yl)-2-oxo-2-(4,5,6,7-tetrahydro-2H-isoindol-1-yl)acetamide] | B* (the compound had a % inhibition of greater than or equal to about 3% but less than about 50%) |
| O=C(N[C@H](CN1CCCC1)[C@H](O)c1ccc2c(c1)OCCO2)C(F)(F)c1cccc(Oc2ccc(F)cc2)c1 [Compound 201, N-((1R,2R)-1-(2,3-dihydrobenzo[b][1,4]dioxin-6-yl)-1-hydroxy-3-(pyrrolidin-1-yl)propan-2-yl)-2,2-difluoro-2-(3-(4-fluorophenoxy)phenyl)acetamide] | A* (the compound had a % inhibition of a percent inhibition of greater than or equal to about 50%) |
| O=C(N[C@H](CN1CCCC1)C(O)c1ccc(N2CCOCC2)c(Cl)c1)C(F)(F)CCc1ccc2ccccc2c1 (stereo in doubt) [Compound 124, N-((1S,2R)-1-(3-chloro-4-morpholinophenyl)-1-hydroxy-3-(pyrrolidin-1-yl)propan-2-yl)-2,2-difluoro-4-(naphthalen-2-yl)butanamide] | B* (the compound had a % inhibition of greater than or equal to about 3% but less than about 50%) |

Same assay, conditions: Table 2; data without asterisk; read-out: IC50 (nM) generated from Assay 1

| Compound | IC50 [nM] |
| --- | --- |
| CC(C)(C)c1ccc(-c2ccc(C(=O)C(=O)N[C@H](CN3CCCC3)[C@H](O)c3ccc(OC4CC4)c(Cl)c3)cc2)cc1 [Compound 255, 2-(4′-(tert-butyl)-[1,1′-biphenyl]-4-yl)-N-((1R,2R)-1-(3-chloro-4-cyclopropoxyphenyl)-1-hydroxy-3-(pyrrolidin-1-yl)propan-2-yl)-2-oxoacetamide] | < 50 |
| C=COc1ccc([C@@H](O)[C@@H](CN2CCCC2)NC(=O)C(=O)c2ccc(-c3ccc(F)cc3)cc2)cc1Cl [Example 329, N-((1R,2R)-1-(3-chloro-4-(vinyloxy)phenyl)-1-hydroxy-3-(pyrrolidin-1-yl)propan-2-yl)-2-(4′-fluoro-[1,1′-biphenyl]-4-yl)-2-oxoacetamide] | < 50 |
| O=C(N[C@H](CN1CCC1)[C@H](O)c1cc(F)c2c(c1)OCCO2)C(F)(F)CCc1ccc2cc(F)ccc2c1 [Compound 86, N-((1R,2R)-3-(azetidin-1-yl)-1-(8-fluoro-2,3-dihydrobenzo[b][1,4]dioxin-6-yl)-1-hydroxypropan-2-yl)-2,2-difluoro-4-(6-fluoronaphthalen-2-yl)butanamide] | < 50 |
| Cc1nn(C(C)C)c2cc(-c3ccc(C(=O)C(=O)N[C@H](CN4CCCC4)[C@H](O)c4cc(F)c5c(c4)OCCO5)cc3)ccc12 [Example 337, N-((1R,2R)-1-(8-fluoro-2,3-dihydrobenzo[b][1,4]dioxin-6-yl)-1-hydroxy-3-(pyrrolidin-1-yl)propan-2-yl)-2-(4-(1-isopropyl-3-methyl-1H-indazol-6-yl)phenyl)-2-oxoacetamide] | < 50 |
| O=C(N[C@H](CN1CCCC1)[C@H](O)c1cc(Cl)c2c(c1)OCCO2)C(=O)c1ccc(-c2ccc3c(cnn3C3CC3)c2)cc1 [Example 276, N-((1R,2R)-1-(8-chloro-2,3-dihydrobenzo[b][1,4]dioxin-6-yl)-1-hydroxy-3-(pyrrolidin-1-yl)propan-2-yl)-2-(4-(1-cyclopropyl-1H-indazol-5-yl)phenyl)-2-oxoacetamide] | < 50 |
| Cc1nn(C)c2cc(-c3ccc(C(=O)C(=O)N[C@H](CN4CCCC4)[C@H](O)c4cc(F)c5c(c4)OCCO5)cc3)ccc12 [Example 341, 2-(4-(1,3-dimethyl-1H-indazol-6-yl)phenyl)-N-((1R,2R)-1-(8-fluoro-2,3-dihydrobenzo[b][1,4]dioxin-6-yl)-1-hydroxy-3-(pyrrolidin-1-yl)propan-2-yl)-2-oxoacetamide] | < 50 |
| O=C(N[C@H](CN1CCCC1)[C@H](O)c1ccc(OC2CCOCC2)c(Cl)c1)/C(=N/O)c1ccc(-c2ccc(F)cc2)cc1 [Compound 177, (E)-N-((1R,2R)-1-(3-chloro-4-((tetrahydro-2H-pyran-4-yl)oxy)phenyl)-1-hydroxy-3-(pyrrolidin-1-yl)propan-2-yl)-2-(4′-fluoro-[1,1′-biphenyl]-4-yl)-2-(hydroxyimino)acetamide] | < 50 |
| CC(C)(C)c1ccc(-c2ccc(C(=O)C(=O)N[C@H](CN3CCCC3)[C@H](O)c3cc(F)c4c(c3)OCCO4)cc2)cc1 [Example 294, 2-(4′-(tert-butyl)-[1,1′-biphenyl]-4-yl)-N-((1R,2R)-1-(8-fluoro-2,3-dihydrobenzo[b][1,4]dioxin-6-yl)-1-hydroxy-3-(pyrrolidin-1-yl)propan-2-yl)-2-oxoacetamide] | < 50 |
| CC(C)c1ccc(-c2ccc(C(=O)C(=O)N[C@H](CN3CCCC3)[C@H](O)c3ccc(OC4CC4)c(Cl)c3)cc2)cc1 [Example 339, N-((1R,2R)-1-(3-chloro-4-cyclopropoxyphenyl)-1-hydroxy-3-(pyrrolidin-1-yl)propan-2-yl)-2-(4′-isopropyl-[1,1′-biphenyl]-4-yl)-2-oxoacetamide] | < 50 |
| O=C(N[C@H](CN1CCCC1)[C@H](O)c1ccc(OC2CC2)c(Cl)c1)C(=O)c1ccc2c(cnn2-c2ccc(F)cc2)c1 [Example 353, N-((1R,2R)-1-(3-chloro-4-cyclopropoxyphenyl)-1-hydroxy-3-(pyrrolidin-1-yl)propan-2-yl)-2-(1-(4-fluorophenyl)-1H-indazol-5-yl)-2-oxoacetamide] | < 50 |
| Cn1ncc2cc(-c3ccc(C(=O)C(=O)N[C@H](CN4CCC4)[C@H](O)c4cc(F)c5c(c4)OCCO5)cc3)ccc21 [Compound 223, N-((1R,2R)-3-(azetidin-1-yl)-1-(8-fluoro-2,3-dihydrobenzo[b][1,4]dioxin-6-yl)-1-hydroxypropan-2-yl)-2-(4-(1-methyl-1H-indazol-5-yl)phenyl)-2-oxoacetamide] | < 50 |

Same assay, conditions: Table 3; MDCK cell lysate; read-out: IC50 (nM) generated from Assay 1

| Compound | IC50 [nM] |
| --- | --- |
| O=C(N[C@H](CN1CCCC1)[C@H](O)c1ccc(OC2CC2)cc1)C(F)(F)CCc1ccc2cc(Cl)ccc2c1 [Example 402, 4-(6-chloronaphthalen-2-yl)-N-((1R,2R)-1-(4-cyclopropoxyphenyl)-1-hydroxy-3-(pyrrolidin-1-yl)propan-2-yl)-2,2-difluorobutanamide] | 50 to 5000 |
| O=C(N[C@H](CN1CCCC1)[C@H](O)c1ccc(Cl)cc1)C(=O)c1cc2ccc(Cl)cc2s1 [Example 386, 2-(6-chlorobenzo[b]thiophen-2-yl)-N-((1R,2R)-1-(4-chlorophenyl)-1-hydroxy-3-(pyrrolidin-1-yl)propan-2-yl)-2-oxoacetamide] | 50 to 5000 |
| O=C(N[C@H](CN1CCCC1)[C@H](O)c1ccc(OC2CC2)cc1)C(F)(F)c1ccc(-c2ccc(F)cc2)cc1 [Example 394, N-((1R,2R)-1-(4-cyclopropoxyphenyl)-1-hydroxy-3-(pyrrolidin-1-yl)propan-2-yl)-2,2-difluoro-2-(4′-fluoro-[1,1′-biphenyl]-4-yl)acetamide] | < 50 |
| O=C(N[C@H](CN1CCCC1)[C@H](O)c1ccc(OC2CC2)cc1)C(F)(F)CCc1ccc2ccccc2c1 [Example 390, N-((1R,2R)-1-(4-cyclopropoxyphenyl)-1-hydroxy-3-(pyrrolidin-1-yl)propan-2-yl)-2,2-difluoro-4-(naphthalen-2-yl)butanamide] | < 50 |
